We go through four compounds from patent EP0942896B1, “SUBSTITUTED PHENOLS AND THIOPHENOLS USEFUL AS ANTIOXIDANT AGENTS” (Aventis Pharmaceuticals Inc., priority 1996, dated 1998).

Read-outs that look alike come from different tables or passages of the source.

The subject of one data set is Male Sprague-Dawley Rats. As to the kind of experiment: Serum clinical chemistries in rats fed compound as dietary admixture. In kind it is in vivo. Particulars: % of control, diet 0.3%, 4 days, N = 5; for ALT: alanine aminotransferase in rat serum; for ALP: alkaline phosphatase in rat serum; for AST: aspartate aminotransferase in rat serum; for GLUC: glucose in rat serum; for response vs control in vivo at 0.3 % in diet: feed or water, 96 h. The source says:
(§1) A typical experiment consists of 4-6 groups of rats (N = 5 per group) with I group being a control which receives no MDL compound and the other groups being treated with 0.3% MDL compound. Some of the compounds are either repeated at 0.3% or evaluated again at the lower dose of 0.1%. House Male Sprague-Dawley rats, 50-100 g, (Harlan Laboratories, Indianapolis, IN) in groups of 5, feeding ad libitum water and Purina Rodent chow (#5002) with or without MDL compound as a dietary admixture for 4 days. Make dietary admixtures (0.3%) by mixing 1.2 grams of an MDL compound with 400 grams of Purina rodent chow (#5002). Mix the MDL compound with approximately 50 grams of food using a mortar and pestle. This is added to the remainder of the food and mixed for 3 hours on a rotary mixer. In the morning of day 5, anesthetize non-fasted rats with carbon dioxide, and collect blood by cardiac puncture. Sacrifice rats by cervical dislocation. Record body weights and liver weights in grams. Record food consumption as grams • day^-1 • rat^-1. Deaths are recorded as mortality. Use aliquots of fresh serum for clinical chemistries, thiobarbituric acid reactive substances (TBARS) and conjugated diene measurements. Freeze aliquots of serum (∼ 0.5mL) and whole livers at -20°C for compound and metabolite concentration determination at a later time.
Allow blood to clot at room temperature for 30 minutes. Obtain serum after centrifugation for 10 min at 4°C at 3000 rpm in a Beckman J-6M/E centrifuge with a JS-4.2 rotor. Analyze fresh serum by a COBAS MIRA S autoanalyzer (Roche Diagnostics) using Roche diagnostic reagents for the following clinical chemistry measurements: alkaline phosphatase (ALP, kit # 44553), alanine transaminase (ALT, kit # 42375), aspartate aminotransferase (AST, kit # 42381), total cholesterol (CHOL, kit # 44334), triglyceride (TG, kit # 44120), and glucose (GLU, kit # 44558). Calculate ALP, ALT, and AST as units/L. Calculate cholesterol, triglycerides, and glucose as mg/dL.

The nature of data set [1]: HPLC quantitation of compound and metabolite concentration in rat serum and liver. In kind it is in vivo. The following applies: male, Sprague-Dawley, oral, 0.3 % in chow, diet 0.3%, 4 days, mean N = 5.
Text: as §1
Determine serum and liver concentrations of parent compound and the metabolites, bisphenol and diphenoquinone, by reverse phase HPLC using a Waters 990 Powerline system. Homegenize livers (1 gram samples) with 5.0mL PBS, pH 7.4, using a Polytron tissue homogenizer at setting 5 for 20-30 seconds. Extract serum or liver homogenates as follows: add 100µL of either serum or homogenate to 2.0mL diethyl ether: ethanol (3:1) while vortexing the tube. Cap the sample tubes and centrifuge for 10 min at 5°C at 3500 rpm in a Beckman GPKR centrifuge with a GH 3.7 rotor. Transfer the supernatants to clean tubes and dry under N2. Reconstitute samples with 200µL of acetonitrile : hexane : 0.1 M ammonium acetate (90: 6.5 : 3.5, by vol.). Then, inject 100µL onto a Waters Deltapak C18-300 Å column, and elute with an 83% acetonitrile : 17% water mobile phase at a flow rate of 1.5mL/min. Record absorbances at the wavelengths of 240, 254, and 420nm. Calculate compound concentrations from known quantities of authentic parent compounds after correction for recovery. […]. Calculate concentrations as µg/mL of serum and µg/g of liver.

Data set [2] in a line: Animal parameters (food, body weight, liver weight/body weight, mortality) in rats. The data set is classed as in vivo. The following applies: 4 days; for food / lw/bw / body wt.: % of control, diet 0.3%, N = 5; for food: grams eaten per day per rat; for lw/bw: liver weight/body weight; for lw/bw / body wt. / mortality: rat; for body wt.: weight in grams; for mortality: male, Sprague-Dawley, in vivo.
Text: as §1

The subject of the next data set is ICAM-1. Nature of the data set: Inhibition of cytokine-induced ICAM-1 expression in human aortic smooth muscle cells (cell ELISA). In kind it is cell-based. Particulars: HASMC, tumor necrosis factor-alpha stimulated, average of two runs, numbers in parentheses represent negative values, read-out: ICAM-1 (% inh. 50 µM). How it is done: (§2) Plate proliferating human umbilical vein endothelial cells (HUVEC) or human aortic smooth muscle cells (HASMC) from Clonetics (San Diego, CA) onto 96-well plates in 100 µL medium per well at 20,000 cells per cm^2. Maintain the cultures in growth medium (EGM or SMGM2, Clonetics, San Diego, CA) for two days prior to addition of cytokines or drugs. Add cytokines plus or minus compounds for 20 to 24 hours prior to analysis for adhesion molecule levels. Add tumor necrosis factor (Genzyme, Cambridge, MA) to cultures at 500-1000 units/mL to stimulate ICAM-1 expression. Add interleukin-4 (GIBCO-BRL, Gaithersburg, MD) to cultures at 100-200 pg/mL to stimulate VCAM-1 expression. […] Remove the culture medium, and wash the monolayers twice with Hanks buffered saline solution (HBSS) at room temperature. Add the primary antibody (anti-human VCAM-1 from Upstate Biotechnology, Inc., Lake Placid, NY or anti-human ICAM-1 from Immunotech, Inc., Westbrook, ME) to each well (1 µg/mL in HBSS plus 5% newborn calf serum, GIBCO-BRL, Gaithersburg, MD) and incubate at 37°C for 1 hr. Wash the wells twice with HBSS, then add 100 µL of a 1/1000 dilution of goat anti-mouse IgG conjugated to horse radish peroxidase (BioRad, Hercules, CA) in HBSS plus 5% newborn calf serum to each well and incubated for 1 hr at 37°C. Wash the wells three times with HBSS, then add 100 µL of TMB substrate (BioRad, Hercules, CA) to each well. Stop the reaction after blue color develops by addition of 50 µL of IN H2SO4. Measure absorbance at 450 nm with a plate reader.
(§3) Table 1 summarizes the ability of selected compounds of this invention to inhibit VCAM-1 and ICAM-1 using human aortic smooth muscle cells (HASMC). In these experiments, the cells were coincubated with interleukin-4 to stimulate VCAM-1 expression and with tumor necrosis factor-alpha to stimulate ICAM-1 expression.
(In general: An ELISA detects its analyte on a solid surface through an enzyme-linked reagent.)

The test system of the next data set is VCAM-1. Nature of the data set: Inhibition of cytokine-induced VCAM-1 expression in human aortic smooth muscle cells (cell ELISA). In kind it is cell-based. Particulars: HASMC, interleukin-4 stimulated, average of three runs, read-out: VCAM-1 (% inh. 50 µM). As to the method: as §2, §3
Where [3] appears, read: total cholesterol in rat serum, read-out: CHOL.
Setting [4] is: triglycerides in rat serum, read-out: TRIG.
[5] abbreviates: parent compound concentration in rat liver, read-out: Liver Parent.
[6] abbreviates: parent compound concentration in rat serum, read-out: Serum Parent.

As for `CC(C)=CCC[C@H](C)CCOc1cc(C(C)(C)C)c(O)c(C(C)(C)C)c1` [MDL 103,294, Phenol, 2,6-bis(1,1-dimethylethyl)-4-[(3,7-dimethyl-6-octenyl)oxy]-, (S)-], in the data set on Male Sprague-Dawley Rats, the ALT came out at 132%, the ALP is 124%, the AST came out at 88% and the GLUC is 103%. Moreover, the response vs control in vivo at 0.3 % in diet in the data set on Male Sprague-Dawley Rats (setting [3]) worked out at 102%. The response vs control in vivo at 0.3 % in diet in the data set on Male Sprague-Dawley Rats (setting [4]) came to 56%. In addition, the concentration at 5 day in data set [1] (setting [5]) was found to be 64600 ng/g. The concentration at 5 day in data set [1] (setting [6]) amounted to 21700 ng/mL. Besides, in data set [2], the food was 108%; the lw/bw is recorded as 129%; the body wt. is given as 101%; the mortality (in general, the percentage killed) was 0%.

Turning to `CC(C)=CCCC(C)CCSc1cc(C(C)(C)C)c(O)c(C(C)(C)C)c1` (stereo not drawn) [MDL 103,960, Phenol, 2,6-bis(1,1-dimethylethyl)-4-[(3,7-dimethyl-6-octenyl)thio]-], in the data set with Male Sprague-Dawley Rats, the ALT is listed as 117%, the ALP worked out at 125%, the AST is 102% and the GLUC worked out at 110%. Besides, in the data set on Male Sprague-Dawley Rats (setting [3]), the response vs control in vivo at 0.3 % in diet was determined as 113%. In addition, the response vs control in vivo at 0.3 % in diet in the data set with Male Sprague-Dawley Rats (setting [4]) was 80%. For the same compound, in data set [1] (setting [5]), the concentration at 5 day came out at 47300 ng/g. Besides, the concentration at 5 day in data set [1] (setting [6]) amounted to 8700 ng/mL. In the data set on ICAM-1, the inhibition at 50 µM is 0%. Besides, in data set [2], the food came out at 105%, the lw/bw is recorded as 130%, the body wt. came to 100% and the mortality stood at 0%. Further, the inhibition at 50 µM with VCAM-1 came to 33.9 ± 6%.

On to `CC(C)CCCC(C)CCOc1ccc(O)c(C(C)(C)C)c1` (stereo not drawn) [MDL 104,191, Phenol, 2-(1,1-dimethylethyl)-4-[(3,7-dimethyloctyl)oxy]-], for which, in the data set on Male Sprague-Dawley Rats, the ALT worked out at 149%, the ALP is on record as 81%, the AST turned out to be 146% and the GLUC is recorded as 106%. In the data set with Male Sprague-Dawley Rats (setting [3]), the response vs control in vivo at 0.3 % in diet is 109%. Further, the response vs control in vivo at 0.3 % in diet in the data set with Male Sprague-Dawley Rats (setting [4]) is 112%. Also, in data set [1] (setting [5]), the concentration at 5 day was determined as 16100 ng/g. In data set [1] (setting [6]), the concentration at 5 day came out at 6900 ng/mL. Moreover, in the data set with ICAM-1, the inhibition at 50 µM is 22%. For the same compound, in data set [2], the food turned out to be 76%, the lw/bw was determined as 126%, the body wt. turned out to be 92% and the mortality is 0%. Further, in the data set with VCAM-1, the inhibition at 50 µM was 42.9 ± 7%.

With `CC(C)=CCC[C@@H](C)CCOc1cc(C(C)(C)C)c(O)c(C(C)(C)C)c1` [MDL 104,535, Phenol, 2,6-bis(1,1-dimethylethyl)-4-[(3,7-dimethyl-6-octenyl)oxy]-,(R)-], in the data set on Male Sprague-Dawley Rats, the ALT turned out to be 108%, the ALP came out at 151%, the AST turned out to be 94% and the GLUC was determined as 112%. Besides, the response vs control in vivo at 0.3 % in diet in the data set on Male Sprague-Dawley Rats (setting [3]) stood at 103%. Besides, the response vs control in vivo at 0.3 % in diet with Male Sprague-Dawley Rats (setting [4]) amounted to 60%. For the same compound, in data set [1] (setting [5]), the concentration at 5 day was determined as 60300 ng/g. Moreover, in data set [1] (setting [6]), the concentration at 5 day turned out to be 16300 ng/mL. Also, the inhibition at 50 µM in the data set with ICAM-1 worked out at 10%. Moreover, in data set [2], the food turned out to be 95%, the lw/bw was found to be 119%, the body wt. is reported as 102% and the mortality is recorded as 0%. For the same compound, the inhibition at 50 µM in the data set on VCAM-1 worked out at 26.4 ± 14%.
